{"source": "patent EP4803147A2", "note": "Like-named read-outs stand apart in the source and are kept apart here.", "data": [{"smiles": "CCO[C@@H]1c2nc(cs2)-c2ccc3c(c2)c(c(-c2cc(N4CCN(C(=O)OCc5ccccc5)CC4)cnc2[C@H](C)OC)n3CCOC(C)C)CC2(CC2)COC(=O)[C@@H]2CCCN(N2)C(=O)[C@H]1NC(=O)OC(C)(C)C", "values": [{"measurement": "ring closure, yield of all isomers", "setting": "from CCO[C@H](c1nc(Br)cs1)[C@H](NC(=O)OC(C)(C)C)C(=O)N1CCC[C@@H](C(=O)OCC2(Cc3c(-c4cc(N5CCN(C(=O)OCc6ccccc6)CC5)cnc4[C@H](C)OC)n(CCOC(C)C)c4ccc(B5OC(C)(C)C(C)(C)O5)cc34)CC2)N1, cc_pd bond, XPhos-Pd-G3/XPhos, K3PO4, toluene, 28.0 mM, 65.0 °C, 2.0 h", "result": 27, "unit": "%"}]}, {"smiles": "CCn1c(-c2cccnc2[C@H](C)OC)c2c3cc(ccc31)-c1csc(n1)[C@@H](OCCN(C)C)[C@H](NC(=O)OC(C)(C)C)C(=O)N1CCC[C@H](N1)C(=O)OCC(C)(C)C2", "values": [{"measurement": "ring closure, yield of all isomers", "setting": "from CCn1c(-c2cccnc2[C@H](C)OC)c(CC(C)(C)COC(=O)[C@@H]2CCCN(C(=O)[C@@H](NC(=O)OC(C)(C)C)[C@H](OCCN(C)C)c3nc(Br)cs3)N2)c2cc(B3OC(C)(C)C(C)(C)O3)ccc21, cc_pd bond, Pd(dtbpf)Cl2, K3PO4, toluene, 57.0 mM, 60.0 °C, 4.0 h", "result": 50, "unit": "%"}]}, {"smiles": "CCO[C@@H]1c2nc(cs2)-c2ccc3c(c2)c(c(-c2cc(C4=CCN(C(=O)OCc5ccccc5)CC4)cnc2[C@H](C)OC)n3CC)CC(C)(C)COC(=O)[C@@H]2CCCN(N2)C(=O)[C@H]1NC(=O)OC(C)(C)C", "values": [{"measurement": "ring closure, yield of all isomers", "setting": "from CCO[C@H](c1nc(Br)cs1)[C@H](NC(=O)OC(C)(C)C)C(=O)N1CCC[C@@H](C(=O)OCC(C)(C)Cc2c(-c3cc(C4=CCN(C(=O)OCc5ccccc5)CC4)cnc3[C@H](C)OC)n(CC)c3ccc(B4OC(C)(C)C(C)(C)O4)cc23)N1, cc_pd bond, Pd(DtBPF)Cl2, K3PO4, toluene, 40.7 mM, 70.0 °C, 1.0 h", "result": 39, "unit": "%"}]}, {"smiles": "CCn1c(-c2cccnc2[C@H](C)OC)c2c3cc(ccc31)-c1csc(n1)C(N(C)C)[C@H](NC(=O)OCC1c3ccccc3-c3ccccc31)C(=O)N1CCC[C@H](N1)C(=O)OCC(C)(C)C2", "note": "(some centres unmarked)", "values": [{"measurement": "ring closure, yield of all isomers", "setting": "from CCn1c(-c2cccnc2[C@H](C)OC)c(CC(C)(C)COC(=O)[C@@H]2CCCN(C(=O)[C@@H](NC(=O)OCC3c4ccccc4-c4ccccc43)C(c3nc(Br)cs3)N(C)C)N2)c2cc(B3OC(C)(C)C(C)(C)O3)ccc21, cc_pd bond, Pd(dtbpf)Cl2, toluene, 27.3 mM, 60.0 °C, 1.0 h", "result": 19, "unit": "%"}]}, {"smiles": "CCO[C@@H]1c2nc(cs2)-c2ccc3c(c2)c(c(-c2cc(N4CCN(C(=O)OCc5ccccc5)CC4)cnc2[C@H](C)OC)n3CCOC(C)C)CC(C)(C)COC(=O)[C@@H]2CCCN(N2)C(=O)[C@H]1NC(=O)OC(C)(C)C", "values": [{"measurement": "ring closure, yield of all isomers", "setting": "from CCO[C@H](c1nc(Br)cs1)[C@H](NC(=O)OC(C)(C)C)C(=O)N1CCC[C@@H](C(=O)OCC(C)(C)Cc2c(-c3cc(N4CCN(C(=O)OCc5ccccc5)CC4)cnc3[C@H](C)OC)n(CCOC(C)C)c3ccc(B4OC(C)(C)C(C)(C)O4)cc23)N1, cc_pd bond, Pd(dtbpf)Cl2, K3PO4, toluene, 16.0 mM, 65.0 °C, 2.0 h", "result": 44, "unit": "%"}]}, {"smiles": "CCn1c(-c2cc(N3CCN(C(=O)OCc4ccccc4)CC3)cnc2[C@H](C)OC)c2c3cc(ccc31)-c1csc(n1)C[C@H](NC(=O)OC(C)(C)C)C(=O)N1CCC[C@H](N1)C(=O)OCC(C)(C)C2", "values": [{"measurement": "ring closure, yield of all isomers", "setting": "from CCn1c(-c2cc(N3CCN(C(=O)OCc4ccccc4)CC3)cnc2[C@H](C)OC)c(CC(C)(C)CO)c2cc(-c3csc(C[C@H](NC(=O)OC(C)(C)C)C(=O)N4CCC[C@@H](C(=O)O)N4)n3)ccc21, ester bond, EDCI/HOBt/DIPEA, MeCN, 10.34 mM, 25.0 °C, 16.0 h", "result": 54.8, "unit": "%"}]}, {"smiles": "CCO[C@@H]1c2nc(cs2)-c2ccc3c(c2)c(c(-c2cccnc2[C@H](C)OC)n3CC)CC(C)(C)COC(=O)[C@@H]2CCCN(N2)C(=O)[C@H]1NC(=O)OC(C)(C)C", "values": [{"measurement": "ring closure, yield of all isomers", "setting": "from CCO[C@H](c1nc(Br)cs1)[C@H](NC(=O)OC(C)(C)C)C(=O)N1CCC[C@@H](C(=O)OCC(C)(C)Cc2c(-c3cccnc3[C@H](C)OC)n(CC)c3ccc(B4OC(C)(C)C(C)(C)O4)cc23)N1, cc_pd bond, Pd(DTBpf)Cl2/K3PO4, toluene, 26.7 mM, 60.0 °C, 1.0 h", "result": 31, "unit": "%"}]}, {"smiles": "CCn1c(-c2cccnc2[C@H](C)OC)c2c3cc(ccc31)-c1csc(n1)[C@@H](OCC1=CCN(C(=O)OCc3ccccc3)CC1)[C@H](NC(=O)OC(C)(C)C)C(=O)N1CCC[C@H](N1)C(=O)OCC(C)(C)C2", "values": [{"measurement": "ring closure, yield of all isomers", "setting": "from CCn1c(-c2cccnc2[C@H](C)OC)c(CC(C)(C)COC(=O)[C@@H]2CCCN(C(=O)[C@@H](NC(=O)OC(C)(C)C)[C@H](OCC3=CCN(C(=O)OCc4ccccc4)CC3)c3nc(Br)cs3)N2)c2cc(B3OC(C)(C)C(C)(C)O3)ccc21, cc_pd bond, Pd(dtbpf)Cl2, K3PO4, toluene, 60.0 °C, 2.0 h", "result": 32, "unit": "%"}]}, {"smiles": "CCn1c(-c2cccnc2[C@H](C)OC)c2c3cc(ccc31)C1=CC(O[Si](c3ccccc3)(c3ccccc3)C(C)(C)C)CN(C1)C[C@H](NC(=O)OC(C)(C)C)C(=O)N1CCC[C@H](N1)C(=O)OCC(C)(C)C2", "note": "(some centres unmarked)", "values": [{"measurement": "ring closure, yield of all isomers", "setting": "from CCn1c(-c2cccnc2[C@H](C)OC)c(CC(C)(C)COC(=O)[C@@H]2CCCN(C(=O)[C@H](CN3CC(Br)=CC(O[Si](c4ccccc4)(c4ccccc4)C(C)(C)C)C3)NC(=O)OC(C)(C)C)N2)c2cc(B3OC(C)(C)C(C)(C)O3)ccc21, cc_pd bond, Pd(dppf)Cl2, K2CO3, toluene, 20.0 mM, 65.0 °C, 2.0 h", "result": 42, "unit": "%"}]}, {"smiles": "CCO[C@@H]1c2nc(cs2)-c2ccc3c(c2)c(c(-c2cc([C@@H]4C[C@H]5COC[C@@H](C4)N5C(=O)OCC4c5ccccc5-c5ccccc54)cnc2[C@H](C)OC)n3CC)CC(C)(C)COC(=O)[C@@H]2CCCN(N2)C(=O)[C@H]1NC(=O)OC(C)(C)C", "values": [{"measurement": "ring closure, yield of all isomers", "setting": "from CCO[C@H](c1nc(Br)cs1)[C@H](NC(=O)OC(C)(C)C)C(=O)N1CCC[C@@H](C(=O)OCC(C)(C)Cc2c(-c3cc([C@@H]4C[C@H]5COC[C@@H](C4)N5C(=O)OCC4c5ccccc5-c5ccccc54)cnc3[C@H](C)OC)n(CC)c3ccc(B4OC(C)(C)C(C)(C)O4)cc23)N1, cc_pd bond, Pd(DtBPF)Cl2, toluene, 10.4 mM, 80.0 °C, 3.0 h", "result": 65, "unit": "%"}]}, {"smiles": "CCn1c(-c2cccnc2[C@H](C)OC)c2c3cc(ccc31)-c1csc(n1)[C@@H](OCC(F)F)[C@H](NC(=O)OC(C)(C)C)C(=O)N1CCC[C@H](N1)C(=O)OCC(C)(C)C2", "values": [{"measurement": "ring closure, yield of all isomers", "setting": "from CCn1c(-c2cccnc2[C@H](C)OC)c(CC(C)(C)COC(=O)[C@@H]2CCCN(C(=O)[C@@H](NC(=O)OC(C)(C)C)[C@H](OCC(F)F)c3nc(Br)cs3)N2)c2cc(B3OC(C)(C)C(C)(C)O3)ccc21, cc_pd bond, Pd(DtBPF)Cl2, K3PO4, toluene, 10.0 mM, 60.0 °C, 1.0 h", "result": 59, "unit": "%"}]}, {"smiles": "CO[C@@H](C)c1ncccc1-c1c2c3cc(ccc3n1CCOC1CCOCC1)-c1csc(n1)C[C@H](NC(=O)OC(C)(C)C)C(=O)N1CCC[C@H](N1)C(=O)OCC(C)(C)C2", "values": [{"measurement": "ring closure, yield of all isomers", "setting": "from CO[C@@H](C)c1ncccc1-c1c(CC(C)(C)CO)c2cc(-c3csc(C[C@H](NC(=O)OC(C)(C)C)C(=O)N4CCC[C@@H](C(=O)O)N4)n3)ccc2n1CCOC1CCOCC1, ester bond, EDCI/HOBt, DIPEA, DCM, 7.0 mM, 25.0 °C, 16.0 h", "result": 68, "unit": "%"}]}, {"smiles": "CCn1c(-c2cccnc2[C@H](C)OC)c2c3cc(ccc31)C1=CC[C@H](COC)N(C1)C[C@H](NC(=O)OC(C)(C)C)C(=O)N1CCC[C@H](N1)C(=O)OCC(C)(C)C2", "values": [{"measurement": "ring closure, yield of all isomers", "setting": "from CCn1c(-c2cccnc2[C@H](C)OC)c(CC(C)(C)COC(=O)[C@@H]2CCCN(C(=O)[C@H](CN3CC(Br)=CC[C@@H]3COC)NC(=O)OC(C)(C)C)N2)c2cc(B3OC(C)(C)C(C)(C)O3)ccc21, cc_pd bond, Pd(dppf)Cl2, K3PO4, toluene, 116.0 mM, 70.0 °C, 3.0 h", "result": 30, "unit": "%"}]}, {"smiles": "CCn1c(-c2cccnc2[C@H](C)OC)c2c3cc(ccc31)-c1csc(n1)C[C@H](NC(=O)OC(C)(C)C)C(=O)N1CCC[C@H](N1)C(=O)OCC(C)(C)C2", "values": [{"measurement": "ring closure, yield of all isomers", "setting": "from CCn1c(-c2cccnc2[C@H](C)OC)c(CC(C)(C)CO)c2cc(-c3csc(C[C@H](NC(=O)OC(C)(C)C)C(=O)N4CCC[C@@H](C(=O)O)N4)n3)ccc21, ester bond, EDCI/HOBt/DIPEA, DCM, 12.65 mM, 25.0 °C, 16.0 h", "result": 81, "unit": "%"}]}, {"smiles": "CC1(C)COC(=O)[C@@H]2CCCN(N2)C(=O)[C@@H](NC(=O)OC(C)(C)C)Cc2nc(cs2)-c2ccc3c(c2)c(c(-c2ccnc(N4CCN(C(=O)OCc5ccccc5)CC4)c2)n3C(C)(C)C#N)C1", "values": [{"measurement": "ring closure, yield of all isomers", "setting": "from CC(C)(CO)Cc1c(-c2ccnc(N3CCN(C(=O)OCc4ccccc4)CC3)c2)n(C(C)(C)C#N)c2ccc(-c3csc(C[C@H](NC(=O)OC(C)(C)C)C(=O)N4CCC[C@@H](C(=O)O)N4)n3)cc12, ester bond, EDCI/HOBT/DIPEA, DCM, 1.05 mM, 25.0 °C, 16.0 h", "result": 52, "unit": "%"}]}, {"smiles": "CC1(C)COC(=O)[C@@H]2CCCN(N2)C(=O)[C@@H](NC(=O)OC(C)(C)C)Cc2nc(cs2)-c2ccc3[nH]c(I)c(c3c2)C1", "values": [{"measurement": "ring closure, yield of all isomers", "setting": "from CC(C)(CO)Cc1c(I)[nH]c2ccc(-c3csc(C[C@H](NC(=O)OC(C)(C)C)C(=O)N4CCC[C@@H](C(=O)O)N4)n3)cc12, ester bond, EDCI/HOBt/DIPEA, DCM, 17.57 mM, 25.0 °C, 16.0 h", "result": 45.9, "unit": "%"}]}, {"smiles": "CCO[C@@H]1c2nc(cs2)-c2ccc3c(c2)c(c(-c2cc(C4=CC5COCC(C4)N5C(=O)OCC4c5ccccc5-c5ccccc54)cnc2[C@H](C)OC)n3CC)CC(C)(C)COC(=O)[C@@H]2CCCN(N2)C(=O)[C@H]1NC(=O)OC(C)(C)C", "values": [{"measurement": "ring closure, yield of all isomers", "setting": "from CCO[C@H](c1nc(Br)cs1)[C@H](NC(=O)OC(C)(C)C)C(=O)N1CCC[C@@H](C(=O)OCC(C)(C)Cc2c(-c3cc(C4=CC5COCC(C4)N5C(=O)OCC4c5ccccc5-c5ccccc54)cnc3[C@H](C)OC)n(CC)c3ccc(B4OC(C)(C)C(C)(C)O4)cc23)N1, cc_pd bond, Pd(dppf)Cl2.DCM, toluene, 205.0 mM, 80.0 °C, 3.0 h", "result": 49, "unit": "%"}]}]}
